This note sets out measurements from patent publication US12012374B2, “Agonists of ROR GAMMAt” (BRISTOL-MYERS SQUIBB COMPANY, priority 2019, dated 2024).

As usually defined, the EC50 is the concentration needed to bring the measured effect to its halfway point.

The structures appear in SMILES notation.

This assay addresses T1, human RORgT (Homo sapiens, UniProt P51449).
T1 construct: expressed in transfected cells; host or cells: engineered Jurkat cells (Jurkat pEx/Gal/hRORγ CLBD/HYG pG5luc/blast)
T1 sequence (P51449 267-516): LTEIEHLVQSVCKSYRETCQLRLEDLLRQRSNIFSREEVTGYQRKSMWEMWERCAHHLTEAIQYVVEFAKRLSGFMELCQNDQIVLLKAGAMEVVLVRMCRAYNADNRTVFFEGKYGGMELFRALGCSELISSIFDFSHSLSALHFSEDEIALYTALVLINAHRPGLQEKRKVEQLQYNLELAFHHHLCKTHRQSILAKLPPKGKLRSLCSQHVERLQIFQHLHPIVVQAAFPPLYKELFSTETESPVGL
The assay is described as follows: RORgT Gal4 Luciferase Reporter Gene Assay. Conditions: engineered Jurkat cells overexpressing RORgT (LBD or full length) fused with Gal4 Luc reporter; 18 hours incubation. It counts as cell-based. In general terms: In a reporter assay the amount or activity of a reporter protein is the signal.
With `NC(=O)[C@H]1CC[C@H](C(=O)N2CC[C@](c3ccc(OCc4c(F)cccc4C(F)(F)F)cc3)(S(=O)(=O)c3ccc(F)cc3)C2)CC1` [Example 44, (1r,4r)-4-[(3R)-3-(4-{[2-fluoro-6-(trifluoromethyl)phenyl]methoxy}phenyl)-3-(4-fluorobenzenesulfonyl)pyrrolidine-1-carbonyl]cyclohexane-1-carboxamide], the EC50 amounted to 195 nM.

Compound `O=C(C1CCS(=O)(=O)CC1)N1CCC(c2ccc(OCc3ccccc3C(F)(F)F)cc2)(S(=O)(=O)c2ccccc2)C1` (stereo not drawn) [Example 32, 4-[3-(benzenesulfonyl)-3-(4-{[2-(trifluoromethyl)phenyl]methoxy}phenyl)pyrrolidine-1-carbonyl]-1λ^6-thiane-1,1-dione] showed a half-maximal effective concentration (EC50) of 84 nM.

`O=C(O)[C@H]1CC[C@H](C(=O)N2CC[C@](c3ccc(OCc4c(Cl)cccc4Cl)cc3)(S(=O)(=O)c3ccc(F)cc3)C2)CC1` [Example 35, (1r,4r)-4-[(3R)-3-{4-[(2,6-dichlorophenyl)methoxy]phenyl}-3-(4-fluorobenzenesulfonyl)pyrrolidine-1-carbonyl]cyclohexane-1-carboxylic acid] displayed a half-maximal effective concentration (EC50) of 58 nM.

The compound `O=C(N1CC[C@](c2ccc(OCc3c(F)cccc3C(F)(F)F)cc2)(S(=O)(=O)c2ccc(F)cc2)C1)C1(O)CCS(=O)(=O)CC1` [Example 43, 4-[(3R)-3-(4-{[2-fluoro-6-(trifluoromethyl)phenyl]methoxy}phenyl)-3-(4-fluorobenzenesulfonyl)pyrrolidine-1-carbonyl]-4-hydroxy-1λ^6-thiane-1,1-dione] yielded an EC50 of 14 nM.

For the compound `O=C(Cc1ccncc1)N1CCC(c2ccc(OCc3ccccc3)cc2)(S(=O)(=O)c2cccc(C(F)(F)F)c2)C1` (stereo not drawn) [Example 22, 1-{3-[4-(benzyloxy)phenyl]-3-[3-(trifluoromethyl)benzenesulfonyl]pyrrolidin-1-yl}-2-(pyridin-4-yl)ethan-1-one], the EC50 came to 514 nM.

Compound `O=C(Cc1ccncc1)N1CCC(c2ccc(OCc3c(Cl)cccc3Cl)cc2)(S(=O)(=O)c2ccccc2)C1` (stereo not drawn) [Example 26, 1-[3-(benzenesulfonyl)-3-{4-[(2,6-dichlorophenyl)methoxy]phenyl}pyrrolidin-1-yl]-2-(pyridin-4-yl)ethan-1-one] yielded an EC50 of 77 nM.

Regarding `O=C(C1CCS(=O)(=O)CC1)N1CCC(c2ccc(OCc3c(Cl)cccc3Cl)cc2)(S(=O)(=O)c2ccccc2)C1` (stereo not drawn) [Example 23, 4-[3-(benzenesulfonyl)-3-{4-[(2,6-dichlorophenyl)methoxy]phenyl}pyrrolidine-1-carbonyl]-1λ^6-thiane-1,1-dione], the EC50 came out at 46 nM. This EC50 is about 1.7-fold lower than that of the compound before.

With `C[C@H](Oc1ccc([C@]2(S(=O)(=O)c3ccc(F)cc3)CCN(C(=O)C3CCS(=O)(=O)CC3)C2)cc1)c1ccccc1` [Example 37, 4-[(3R)-3-(4-fluorobenzenesulfonyl)-3-{4-[(1S)-1-phenylethoxy]phenyl}pyrrolidine-1-carbonyl]-1λ^6-thiane-1,1-dione], it took 77 nM to reach a half-maximal effect (EC50).

`O=C(C1CCS(=O)(=O)CC1)N1CCC(c2ccc(OCc3c(F)ccc(F)c3Cl)cc2)(S(=O)(=O)c2ccccc2)C1` (stereo not drawn) [Example 27, 4-[3-(benzenesulfonyl)-3-{4-[(2-chloro-3,6-difluorophenyl)methoxy]phenyl}pyrrolidine-1-carbonyl]-1λ^6-thiane-1,1-dione] registered an EC50 of 109 nM.
